Measured values from article PMC8162347, “Bolaamphiphilic Bis-Dehydropeptide Hydrogels as Potential Drug Release Systems” (Gels, 2021).

Assays:
[1] = Gelation study, pH trigger with GdL, vial inversion test; type: physicochemical; settings: for pH (gelation conditions): pH of hydrogel at cgc after GDL 0.4 wt %; for Critical Gelation Concentration (cgc): vial inversion test, water, NaOH (1 M) to circa pH 10, then GDL 0.4 wt %
From the text: Nonetheless, dimeric dehydropeptides 1–4 could be dissolved in water upon pH adjustment to pH 10–11, which was achieved by addition of NaOH solution (1 M). Gel formation was triggered by a slow pH drop. The pH change was obtained by the aqueous hydrolysis of added D-glucono-δ-lactone (GdL) to D-gluconic acid. […] The CGCs of hydrogels 1–3 were qualitatively assessed by varying the peptide concentrations and conducting vial inversion tests.
Dehydrodipeptides 1, 2 and 3 were weighed into sample vials, water was added, and the suspension was adjusted under magnetic stirring to circa pH 10 (pH meter) by the addition of NaOH (1 M), and D-glucono-δ-lactone (GDL) was added. The solutions were left standing overnight at room temperature (20–25 °C).

[2] = system: HaCaT cell line (human keratinocytes); test: MTT assay, cell viability; type: cell-based; settings: 24 h
Description: Human keratinocytes cell line HaCaT was from ATCC. Cells were cultured in DMEM supplemented with 10% FBS and 1% penicillin/streptomycin and were incubated at 37 °C, in a humidified atmosphere of 5% CO2.
Cells were seeded in 96-well plates (1.5 × 10^4 cells/well) and left to attach for 24 h. After this period, cells were incubated with different concentrations of the molecules under study for another 24 h. Then, cell viability was evaluated based on the ability of metabolically active cells to convert MTT to formazan over the course of 2 h. Absorbances were measured at 570 nm in a Multiskan GO plate reader (Thermo Fisher Scientific; Waltham, MA, USA) and results were expressed as percentage of the respective control and correspond to the mean ± standard error of the mean (SEM) of at least three independent experiments performed in triplicate. On the other hand, to assess the release of the stable cytosolic enzyme lactate dehydrogenase (LDH) into the media, 24 h after the incubation of the cells with the different concentrations of the molecules under study, 40 µL of culture media were removed to a 96-well plate. LDH released was determined using a CytoTox 96® assay kit (Promega; Madison, WI, USA) according to the manufacturer’s instructions. Then, 1% Triton X-100 was used as positive control to assure cell lysis (30 min). Absorbances were measured at 490 nm in a Multiskan GO plate reader (Thermo Fisher Scientific; Waltham, MA, USA), and results correspond to the fold-increase of absorbance in treated vs. untreated cells of three independent experiments performed in duplicate. Following assessment of the distribution of the results, ANOVA was performed using GraphPad Prism 8.0 (GraphPad Prism Inc., San Diego, CA, USA).

[3] = Sustained release assay of model cargo from hydrogels
Description: Hydrogels containing cationic, anionic, or zwitterionic model drugs were prepared using the same conditions described in Section 2.2 but with the water component (1 mL) being replaced by a methylene blue solution, methyl orange solution, or ciprofloxacin solution. In a modified version of the method described by Abraham et al., water was carefully layered on top of the hydrogel surface. Then, the percentage release of model drug was recorded versus time, over 6 days, through UV absorption measurements or by HPLC and then subsequently fitted to a standard calibration curve (Figure S10 in Supplementary Information). The experiments were also assessed visually (Figure 9). […] In the studies involving the release of methyl orange, a clearly visible release of the anionic dye into the layered water solution was observed from the three hydrogels after several days (Figure 9B,D,F centre). The results for the release of methyl orange were also confirmed quantitatively by UV absorption measurements. Hydrogelators 1 and 3, which contain a phenylalanine residue, release nearly 60% of the anionic methyl orange cargo, whereas hydrogel 2, containing a tyrosine residue, released more than 90%. […] Ciprofloxacin was included as an overall neutral cargo. In experiments involving hydrogels of compounds 1–3 containing ciprofloxacin, the amount of ciprofloxacin present in the above water layer was determined by HPLC at various time-points. Hydrogelators 1, 2, and 3 release 32%, 58%, and 20% of their ciprofloxacin cargo, respectively (Table 4) (Figure S11 in Supplementary Information). As observed for methyl orange, the hydrogel that releases the greatest amount of ciprofloxacin is the hydrogel obtained from compound 2 (Table 4, Figure S11 in Supplementary Information).
To quantitatively evaluate the drug release from hydrogels 1–3, several mathematical models were tested to see which one fits the tested hydrogels. The Korsmeyer–Peppas model is the preferred model for polymeric systems. Korsmeyer described a simple relationship that described drug release from a polymeric system that includes both the diffusion and erosion of the polymer chain. The following equation describes the Korsmeyer–Peppas model: Mt/M = Kt^n
Hydrogels of 1, 2, and 3 were prepared as described in Section 4.2 to form 1 mL hydrogels containing the same concentration of the hydrogelators described above and the appropriate cargo (methylene blue ([…]), methyl orange (0.2 nM), or ciprofloxacin (0.2 nM)), in a slightly modified version of the procedure described by Abraham et al.. After allowing to stand overnight, 1.5 mL of water was carefully added to the surface of the hydrogels. Aliquots of the layered solution (100 μL) were removed at 1 h, 2 h, 3 h, 4 h, 6 h, 24 h, 72 h, and 6 days from the time the water was initially layered on top of the hydrogel. After removing each aliquot, the volume water was immediately replaced by an equal volume of water. The concentration of methylene blue or methyl orange in each aliquot was determined by measuring the absorbance at λmax of the dye (666 nm for methylene blue and 465 nm for methyl orange) using a microplate reader and then converting the value to percentage release (using a standard calibration curve). The concentration of ciprofloxacin in each aliquot was determined using analytical HPLC, where the integrated peak area was converted to a percentage release (using a standard calibration curve). Each experiment was performed in triplicate, and the mean percentage cargo release was plotted against time.

[4] = standing overnight at room temperature (20–25 °C)

SMILES	pH (gelation conditions) [1]	Critical Gelation Concentration (cgc) ([1]; overnight at room temperature)	Critical Gelation Concentration (cgc) [1, 4]	Apparent loss of cell viability (mitochondrial activity) ([2]; most concentrations tested, independent of concentration)	K, release rate constant, Korsmeyer–Peppas model ([3]; ciprofloxacin release profile)	n, release exponent, Korsmeyer–Peppas model ([3]; ciprofloxacin release profile)	K, release rate constant, Korsmeyer–Peppas model ([3]; methyl orange release profile)	n, release exponent, Korsmeyer–Peppas model ([3]; methyl orange release profile)	Effect on HaCaT viability [2]	Loss of mitochondrial activity ([2]; the two highest concentrations)
O=C(O)/C(=C/c1ccccc1)NC(=O)[C@H](Cc1ccccc1)NC(=O)c1ccc(C(=O)N[C@@H](Cc2ccccc2)C(=O)N/C(=C\c2ccccc2)C(=O)O)cc1 [Compound 1]	5.10	4.0 mM	0.3 wt %	around 20%	0.0200	0.3300	0.0200	0.4000	–	–
O=C(O)/C(=C/c1ccccc1)NC(=O)[C@H](Cc1ccc(O)cc1)NC(=O)c1ccc(C(=O)N[C@@H](Cc2ccc(O)cc2)C(=O)N/C(=C\c2ccccc2)C(=O)O)cc1 [Compound 2]	4.15	5.1 mM	0.4 wt %	–	0.0030	0.5800	0.0900	0.2700	mostly devoid of any effect	around 10%
